In US10683553B2, “Method for determining sensitivity to simultaneous inhibitor against PARP and Tankyrase” (THE ASAN FOUNDATION, priority 2015, dated 2020):

Assays:
Assay type in all cases: cell-based
[1] = system: Ls174T colon cancer cell line; assay: MTS cell viability / IC50; conditions: Homo sapiens
Procedure: The present inventors conducted an in vitro cell base assay to analyze the anticancer activity of Compound A, which is a novel PARP/Tankyrase simultaneous inhibitor, in 18 human colon cancer cell lines (Korean Cell Line Bank and ATCC purchased), and the cell viability and IC50 of the cell lines for Compound A, the novel PARP/Tankyrase simultaneous inhibitor, were measured.
As the experimental conditions and methods, a total of 18 human colon cancer cell lines were cultured in RPMI1640 (Roswell Park Memorial Institute 1640; 10% FBS, 1% penicillin/streptomycin), and each cell line was cultured in 96 well plate for 2×10^3 per well at 37° C. for 24 hours and the novel PARP/Tankyrase simultaneous inhibitor, Compound A, was diluted by a multiple of 2 at a maximum of 100 μM and a minimum of 0.390625 μM (100 μM, 50 μM, 25 μM, 12.5 μM, 6.25 μM, 3.125 μM, 1.5625 μM, 0.78125 μM and 0.390625 μM). After the treatment, it was cultured at 37° C. for 72 hours. As for the drug treatment group and non-treatment group, the cell viability of each cell line was measured by MTS analysis (Promega, CellTiter 96 AQeous One Solution) and the IC50 of each cell line was measured using the PRISM program.
The present inventors analyzed the correlation of 18 human colon cancer cell lines, an anti-cancer effect of Compound A which is a novel PARP/Tankyrase simultaneous inhibitor and the genotype of the p53 gene through an in vitro cell base assay in the same experimental method as Example 1 in 18 human colon cancer cell lines.

[2] = system: HCT8 human colon cancer cell line; assay: Western blot of r-H2AX and truncated caspase 3 with overexpressed mutant LIG4; conditions: HCT8 overexpressing LIG4 mutant G833A or T1704C
Procedure: The present inventors conducted an experiment in the same manner as Example 9 to analyze the degree of apoptosis and DNA damage of Compound A, which is a novel PARP/Tankyrase simultaneous inhibitor, when the p53 genotype is a mutant type and an LIG4 genotype is a mutant type. The number of cells was measured by trypan blue staining method and the degree of apoptosis was confirmed. The cells were obtained using a centrifuge. Each cell thus obtained was dissolved using an RIPA buffer, and the proteins were extracted using a high-speed centrifuge. 30 μg protein per cell was electrophoresed by western blot method to separate proteins and transferred to PDVF membrane. The r-H2AX, truncated caspase 3, and b-actin antibody were diluted with each 1:2000 ratio in 5% skim milk. Then, the cells were reacted at 4° C. for 12 hours and then washed three times for 15 minutes with TBS-T buffer. The secondary antibody was diluted with each 1:2000 ratio in 5% skim milk and reacted at room temperature for 2 hours. It was washed with TBS-T buffer three times for 15 minutes to induce luminescence of PDVF membrane using ECL buffer solution to develop protein expression on each anti-body using an X-ray film.

[3] = system: RKO human colon cancer cell line; assay: DNA damage by r-H2AX immunocytochemistry; conditions: RKO (p53 normal, LIG4 mutant); 50 μM, 48 hours
Description: In order to analyze the degree of DNA damage of Compound A, which is a novel PARP/Tankyrase simultaneous inhibitor, when the p53 gene is a normal type and the LIG4 gene is a mutant type, the present inventors treated a novel PARP/Tankyrase simultaneous inhibitor, Compound A, and the competitive drug PARP inhibitor, olaparib, in the RKO human colon cancer cell line in which the p53 gene is a normal type and the LIG4 gene is a mutant type, and the DNA damage was confirmed by the immunochemical method as the expression level of r-H2AX. The conditions and methods of the experiment were as follows: RKO human colon cancer cell line in which the p53 gene is a normal type and the LIG4 gene is a mutant type was cultured in RPMI1640 (10% FBS, 1% penicillin/streptomycin) and cultured in a 60 mm plate at 1×10^5 per well for 24 hours at 37° C. […] The r-H2AX antibody was diluted at a ratio of 1:100 in 1% BSA, reacted overnight at 4° C., washed three times for 10 minutes with TBS-T buffer, and the secondary antibody (Alexa Fluor®488 fitc) was diluted at a ratio of 1:100 in 1% BSA, reacted at room temperature for 2 hours, and then washed with TBS-T A buffer three times for 10 minutes, and stained with DAPI to confirm the expression level of r-H2AX under a fluorescence microscope.

[4] = system: LoVo human colon cancer cell line; assay: Trypan blue apoptosis with overexpressed mutant p53 or normal LIG4; conditions: 25 μM and 50 μM, 48 hours
Description: As in Example 12, in order to analyze the degree of apoptosis of Compound B, which is a novel PARP/Tankyrase simultaneous inhibitor, according to the expression of a mutant type p53 and a normal type LIG4 when the p53 genotype is a normal type and an LIG4 genotype is a mutant type, the present inventors treated a novel PARP/Tankyrase simultaneous inhibitor, Compound B, and the competitive drug PARP inhibitor, olaparib, while overexpressing the p53 mutant type and the LIG4 normal type in the LoVo human colon cancer cell line in which the p53 gene is a normal type and an LIG4 genotype is a mutant type. Then, the number of cells was measured by trypan blue staining assay to confirm the degree of apoptosis. The conditions and methods of the above experiment were the same as the methods of RKO cell culturing and transfection methods of Example 12. Compound B, which is a novel PARP/Tankyrase simultaneous inhibitor, and olaparib, which is a competitive drug PARP inhibitor, were treated with each of 25 μM and 50 μM. After 48 hours of culturing, the number of cells was measured by trypan blue staining assay and the degree of apoptosis was confirmed.

| Structure (SMILES) | IC50 ([1]; LS174T, p53 Wild-type cell line) [µM] | IC50 ([1]; Ls174T, MTS, 72 hours) [µM] | expression amount of truncated caspase 3 (western blot) [2] | expression of r-H2AX (western blot) [2] | DNA damage: expression level of r-H2AX (immunocytochemistry) [3] | degree of apoptosis (trypan blue cell count) ([4]; LoVo overexpressing LIG4 normal type gene vs control group (empty)) | degree of apoptosis (trypan blue cell count) ([4]; LoVo overexpressing p53 mutant type gene vs control group (empty)) |
| --- | --- | --- | --- | --- | --- | --- | --- |
| CCOc1cc(CN(C)C)cc2[nH]c(=O)c3c(c12)NCCC3 [Compound A, 8-[(dimethylamino)methyl]-10-ethoxy-1,2,3,4-tetrahydrobenzo[h][1,6]naphthyridin-5(6H)-one] | 12.2 | 12.2 | also increased | also increased | expression of r-H2AX was increased |  |  |
| N#Cc1ccc(N2CCN(Cc3ccc4c5c(c(=O)[nH]c4c3)CCCN5)CC2)nc1 [Compound B, 6-{4-[(5-oxo-1,2,3,4,5,6-hexahydrobenzo[h][1,6]naphthyridin-8-yl)methyl]piperazin-1-yl}nicotinonitrile] |  |  |  |  |  | apoptosis was reduced | apoptosis was reduced |
